Data reported in patent US5866576A, “Epoxide-containing compounds” (Cell Therapeutics, Inc., priority 1997, dated 1999).

Columns and labels:
[1] = tested on: thymocytes; experiment: murine thymocyte proliferation assay co-stimulated by ConA and IL-2 (FIGS. 7A-7E); type: cell-based, Balb/C mice; settings: Mus musculus
Description: This example illustrates dose response curves used to generate 50% inhibition concentrations (IC50) for inventive compounds nos. 1410, 1439, 1541, 1553, 1553S, 1560, 1565, 2548R, 2548S and 2562 in a murine thymocyte proliferation assay, co-stimulated by Concanavalin A (ConA) and interleukin-2 alpha (IL-2). ConA, used to activate the T-cell receptor (TCR), along with IL-2 co-stimulation, induces T-cell proliferation and differentiation. Thymuses, obtained from normal, female Balb/C mice, were dissociated and plated into 96-well plates at a density of 2×10^5 cells/well. ConA (0.25 mg/ml) and IL-2 (15 U/ml) were added to the wells. The cells were incubated for 4 days at 37° C. On day 4, the cells were pulsed with tritiated thymidine and incubated for an additional 4 hours. The amount of tritiated thymidine incorporated by the harvested cells was determined in a liquid scintillation counter. Doses of inventive compounds (shown in FIGS. 7A-7E) were added two hours prior to ConA and IL-2 activation. Background counts were less than 200 cpm. Results obtained, illustrate the ability of the inventive compounds to inhibit thymocyte proliferation and activation. In FIG. 7A, inventive compounds nos. […] FIG. 7B presents additional data for compound no. 1410 and 1553S in this assay. […] FIG. 7C reports assay results for inventive compounds nos. 1439, 1541, 1560 and 1565. […] FIGS. 7D and 7E illustrate assay results for inventive compounds nos. 1541, 1553, 1560 and 1565 (FIG. 7D) and 2562, […] (FIG. 7E). As is true of other inventive compounds tested, all these compounds represented in FIGS. 7D and 7E inhibit thymocyte proliferation. […] 1541, 1553, 1560, 1565, 2562, 2548R and 2548S, respectively.

[2] = tested on: Balb/3T3 cells; experiment: Balb/3T3 cytotoxicity assay (BCECF-AM); type: cell-based; settings: FIGS. 8C, 8D
Description: In conjuction with the Balb/3T3 proliferation assay conducted above, a Balb/3T3 cytotoxicity assay was conducted to determine that the inhibition on proliferation was not due to cytotoxic effects. This assay is similar to the assay decribed above except tritiated thymidine was not added and after 18-24 hours incubation with PDGF/BB and a lOuM solution of 2,7-bis-(2-carboxyethyl)-5(and-6)carboxyflouresceinacetoxymethyl ester (BCECF-AM) was added for 30 minutes at 37° C. (BCECF is a compound that when cleaved by esterases, yields a fluorescent product in viable cells only, therefore providing a measure of viable cell numbers). Following sufficient incubation, BCECF is replaced with PBS and the plate examined with flourescence in a Millipore "cytofluor." The data is compiled and plotted.

[3] = tested on: murine splenocytes; experiment: murine splenocyte proliferation co-stimulated by anti-mu and IL-4 (FIG. 11); type: cell-based; settings: Mus musculus, anti-mu / IL-4 12.5 ng/ml
Description: This example illustrates inhibitive effects of compounds nos. 1439, 1553S, 1560 and 1565 on murine splenocyte proliferation co-stimulated by anti-mu ([…]) and interleukin-4 (IL-4, 12.5 ng/ml). This in vitro assay, described above, is indicative of immune-suppressive/autoimmune treatment assay emphasizing humoral or B cell immune response. This assays are a predictive model for treatment or prevention of autoimmune diseases, such as diabetes, lupus, arthritis, and the like. The assay measures immunosuppressive activity of a drug at the B cell level. Spleens from adult mice contain immature B cells that express surface IgM. Cross-linking the surface IgM with an anti-mu antibody results in B cell proliferation. Additionally, this activation results in an increased expression of interleukin-4 receptors(IL-4R) on the surface of such cells. IL-4 acts as a growth factor for B cells and will increase the amount of proliferation induced by anti-mu.
A mixture of anti-mu and murine IL-4 is added to murine splenocytes to cause their proliferation. Mice spleens are obtained from adult mice and a single cell suspension is prepared in RPMI 1640 medium supplemented with 10% FCS. Cells (200,000) are plated into flat-bottomed wells and pre-incubated for 1-2 hours with various concentrations of inventive compound or PBS if it is a control. A mixture of anti-mu and murine is added to the wells at a final concentration of 5 μg/ml anti-mu and 12.5 ng/ml IL-4 and plates are incubated for three days. Proliferation is determined on the third day with a pulse of tritiated thymidine. The IC50 concentration of a particular drug is the concentration of drug that results in a 50% inhibition of the proliferation obtained from the positive control.

[4] = tested on: lymph node cells; experiment: ovalbumin-induced proliferation in murine lymph cells (FIG. 13); type: cell-based, Balb/C mice; settings: Mus musculus, OVA 200 μg/ml
Description: This example illustrates effects of the inventive compounds on ovalbumin-induced proliferation in murine lymph cells. Lymphnode cells contain a mixture of lymphoid cells: T-cells, B-cells and macrophages. Although proliferating cells in this assay are T-cells, the response obtained depends on type of antigen-presenting cell (e.g., macrophages) as well as elaboration of various immunoregulatory cytokines. Thus, this assay serves as a good model for T-cell mediated responses and as a valuable screening tool in identifying compounds useful in immunosuppressive therapeutic applications.
Murine T-cells proliferate in vitro in response to a soluble protein antigen if first primed with a corresponding antigen in vivo. This in vivo priming usually involves emulsifying the antigen in complete Freunds adjuvant and injecting this preparation into an appropriate site on a mouse. In this assay the antigen employed was chicken ovalbumin(OVA). Following emulsification in Freund's complete adjuvant, 50 μg of OVA were injected into both hind footpads of adult Balb/C mice. Fourteen days later the draining lymph nodes(popliteal) were removed and a single cell suspension was prepared in RPMI-1640 (10%FCS) medium. Two hundred thousand lymph node cells are then plated into wells of flat-bottom 96-well plates. Inventive compouds nos. 1410, 1553 (racemic), 1553(S), 1560 and 1565 were added to appropriate wells at various concentrations. OVA, at a final concentration of 200 μg/ml, was added to appropriate wells. Positive and negative controls were established on each plate, all assay variables being set up in quadruplicate.
The plates were incubated in a humidified, 5% CO2 incubator for 5 days. On the fifth day, 1 μCi of tritiated thymidine was added to each well and the plates were incubated for an additional 4 hours. The plates were harvested and the incorporation of 3H-TdR was determined in a liquid scintillation counter. The CPM data was then used to calculate experimental IC50 values for the compounds tested. Again, IC50 is defined as that concentration of compound resulting in 50% inhibition of 3H-TdR incorporation of the positive control.

Cn1cnc2c1c(=O)n(CCCCCCCC1CO1)c(=O)n2C (centres unmarked) [Compound 1560, 1-(8,9-Oxidononyl)-3,7-dimethylxanthine]
IC50 ([1]; FIG. 7C): 22 µM | IC50 ([1]; FIGS. 7D and 7E): 14 µM | cytotoxic effects [2]: without exhibiting cytotoxic effects | IC50 [3]: 29 µM | IC50 [4]: 34 µM
